Experimental findings from ChEMBL document CHEMBL1201862, “PubChem BioAssay data set” (2004) are described below.

The structures appear in SMILES notation.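 Values below derive from 48-hour exposures of cells grown in 96-well plates, with endpoints linearly interpolated between the two concentrations bracketing the appropriate inhibition level. At the GI50, growth is halved.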 Calls of active or inactive are those of the source. Rule as the data show it: active = GI50 up to about 1.1 µM and inactive = higher.

Some test systems named below: NCI-H460; OVCAR-5; 786-0; HCC 2998; IGROV-1; Malme-3M; SF-539; CAKI-1; HCT-15; A549; OVCAR-4; RPMI-8226; HOP-62; SNB-19; UACC-257; HT-29; M14; HCT-116.
Holding throughout (assay): NCI tumour cell line growth inhibition, 48 h

As to `C/C=C/CC(C)[C@@H](O)[C@H](NC)C(=O)O` (some centres not stated), the GI50 in the assay on NCI-H460, in the assay with OVCAR-5, in the assay on 786-0, in the assay on HCC 2998, with IGROV-1 and in the assay with Malme-3M was > 100 µM (inactive) throughout. Further, the GI50 in the assay with SF-539 is > 100 µM (inactive); in the assay on CAKI-1 it was > 100 µM (inactive); with HCT-15, above 100 µM; in the assay on A549, > 100 µM (inactive); in the assay on OVCAR-4 it was > 100 µM (inactive); in the assay on RPMI-8226 it was > 100 µM (inactive). The GI50 in the assay with HOP-62, in the assay with SNB-19, in the assay on UACC-257, in the assay on HT-29 and in the assay on M14 was > 100 µM (inactive) in each case.
In the case of `Cc1ccc(NC(=O)CC2Sc3ccccc3NC2=O)cc1C` (configuration not stated), the GI50 was 58.6 µM (inactive) with NCI-H460; > 100 µM (inactive) with OVCAR-5; > 100 µM (inactive) with HCC 2998; > 100 µM (inactive) in the assay on IGROV-1; > 100 µM (inactive) with Malme-3M; 85.3 µM (inactive) with SF-539. For the same molecule, the GI50 in the assay on CAKI-1 was 85.9 µM (inactive); in the assay on HCT-15, 85.7 µM; in the assay with A549, 41.2 µM (inactive); with OVCAR-4 it was 56.2 µM (inactive); in the assay on RPMI-8226 it was > 100 µM (inactive); with HOP-62, > 100 µM (inactive). In addition, the GI50 with SNB-19 is > 100 µM (inactive); in the assay with UACC-257, > 100 µM (inactive); in the assay with HT-29 it was 67.1 µM (inactive); in the assay on HCT-116 it was 41.6 µM (inactive); in the assay on M14 it was > 100 µM (inactive).
In the case of `Cc1ccc(NC(=O)CCC(=O)C(C#N)c2ccccc2)cc1C` (configuration not stated), the GI50 with NCI-H460, with OVCAR-5, in the assay with 786-0, in the assay on HCC 2998, with IGROV-1 and in the assay with Malme-3M was > 100 µM (inactive) in each case. For the same molecule, the GI50 with SF-539 was > 100 µM (inactive); in the assay on CAKI-1, > 100 µM (inactive); with HCT-15, above 100 µM; in the assay with A549, > 100 µM (inactive); in the assay on OVCAR-4 it was > 100 µM (inactive); with RPMI-8226, > 100 µM (inactive). The GI50 in the assay on SNB-19, in the assay on UACC-257, in the assay with HT-29, in the assay with HCT-116 and in the assay with M14 was > 100 µM (inactive) in each case.
With `Sc1nnc(COc2ccc(Cl)cc2Cl)[nH]1`, the GI50 in the assay on NCI-H460, with OVCAR-5, with 786-0, in the assay on HCC 2998, with IGROV-1 and in the assay with Malme-3M was > 100 µM (inactive) each time. Further, the GI50 in the assay on SF-539 was > 100 µM (inactive); with CAKI-1, > 100 µM (inactive); with HCT-15, above 100 µM; in the assay with A549, > 100 µM (inactive); in the assay on OVCAR-4 it was > 100 µM (inactive); with RPMI-8226, > 100 µM (inactive). The GI50 in the assay on SNB-19, in the assay with UACC-257, in the assay with HT-29, in the assay on HCT-116 and with M14 was > 100 µM (inactive) in each case.
For the molecule `Cc1cc2c(cc1C)[n+]([O-])c(C(=O)/C=C/c1ccccc1Cl)c(C)[n+]2[O-]`, the GI50 in the assay on NCI-H460 was 26.2 µM (inactive); with OVCAR-5, 34.4 µM (inactive); in the assay with 786-0, 16 µM (inactive); in the assay with HCC 2998, 17.1 µM (inactive); with IGROV-1 it was 20.1 µM (inactive); in the assay with Malme-3M, 31.8 µM (inactive). Besides, the GI50 with SF-539 was 19.9 µM (inactive); with CAKI-1, 21.1 µM (inactive); in the assay with HCT-15, 22.5 µM; in the assay on A549, 33.9 µM (inactive); in the assay on OVCAR-4, 50.7 µM (inactive); in the assay on RPMI-8226 it was 45 µM (inactive). For the same molecule, the GI50 in the assay with HOP-62 was 24.6 µM (inactive); with SNB-19, 43.2 µM (inactive); with UACC-257 it was 23 µM (inactive); with HT-29 it was 34.8 µM (inactive); with M14, 24.1 µM (inactive).
With `COc1ccc(OC)c(/C=C(/C#N)c2ccccc2)c1`, the GI50 in the assay with NCI-H460 was 15.8 µM (inactive); in the assay with OVCAR-5 it was 56 µM (inactive); in the assay on 786-0 it was 19 µM (inactive); in the assay on HCC 2998, > 10 µM (inactive); with IGROV-1, 31.7 µM (inactive); in the assay with Malme-3M, 35.6 µM (inactive). The GI50 was 28.2 µM (inactive) in the assay on SF-539; 35.1 µM (inactive) in the assay with CAKI-1; 18.9 µM in the assay with HCT-15; 13.2 µM (inactive) with A549; 15.9 µM (inactive) with OVCAR-4; 13.4 µM (inactive) in the assay on RPMI-8226. Further, the GI50 with HOP-62 is 40.3 µM (inactive); in the assay with SNB-19 it was 52 µM (inactive); in the assay on HT-29, 6.52 µM (inactive); with HCT-116 it was 49.3 µM (inactive); with M14, 33.3 µM (inactive).
Take `NC(=S)Nc1nnc(-c2ccc(-c3nnc(NC(N)=S)o3)cc2)o1`: the GI50 in the assay with NCI-H460, in the assay on OVCAR-5, in the assay on 786-0, in the assay on HCC 2998, with IGROV-1 and with Malme-3M was > 100 µM (inactive) in each case. Further, the GI50 in the assay with SF-539 was > 100 µM (inactive); with CAKI-1, > 100 µM (inactive); with HCT-15 it was above 100 µM; with A549, > 100 µM (inactive); in the assay with OVCAR-4 it was > 100 µM (inactive); in the assay on RPMI-8226, > 100 µM (inactive). Further, the GI50 in the assay with HOP-62, in the assay on SNB-19, in the assay on UACC-257, with HT-29, with HCT-116 and in the assay on M14 was > 100 µM (inactive) each time.
On to `O=C1CC2CCCCC2=C1O` (configuration not stated), for which the GI50 in the assay with NCI-H460, with OVCAR-5, in the assay on 786-0, in the assay on HCC 2998, with IGROV-1 and in the assay with Malme-3M was > 100 µM (inactive) in each case. Also, the GI50 is > 100 µM (inactive) in the assay with SF-539; > 100 µM (inactive) in the assay with CAKI-1; above 100 µM in the assay with HCT-15; > 100 µM (inactive) with A549; > 100 µM (inactive) in the assay with OVCAR-4; > 100 µM (inactive) with RPMI-8226. The GI50 in the assay with HOP-62, with SNB-19, in the assay on UACC-257 and in the assay on HCT-116 was > 100 µM (inactive) in each case.
With `CN1C(=O)CCC1(O)C1C=CC=CC1` (configuration not stated), the GI50 in the assay on NCI-H460, in the assay with OVCAR-5, with 786-0, with HCC 2998, in the assay on IGROV-1 and in the assay on Malme-3M was > 100 µM (inactive) throughout. Moreover, the GI50 in the assay on SF-539 is > 100 µM (inactive); with CAKI-1, > 100 µM (inactive); in the assay on HCT-15, above 100 µM; with A549, > 100 µM (inactive); in the assay on OVCAR-4, > 100 µM (inactive); with RPMI-8226, > 100 µM (inactive). Further, the GI50 in the assay on HOP-62, in the assay on SNB-19, with UACC-257, with HT-29, with HCT-116 and with M14 was > 100 µM (inactive) each time.
In the case of `Cc1ccc(S(=O)(=O)OC2CSSCC2OS(=O)(=O)c2ccc(C)cc2)cc1` (configuration not stated), the GI50 is 17.7 µM (inactive) in the assay with NCI-H460; 23.4 µM (inactive) in the assay with OVCAR-5; 12.6 µM (inactive) in the assay with 786-0; 20.9 µM (inactive) in the assay with HCC 2998; 16.8 µM (inactive) with IGROV-1; 19.2 µM (inactive) with Malme-3M. For the same molecule, the GI50 was 10.5 µM (inactive) with SF-539; 12.5 µM (inactive) in the assay on CAKI-1; 10.2 µM with HCT-15; 18 µM (inactive) with A549; 11.2 µM (inactive) with OVCAR-4; 13.2 µM (inactive) in the assay on RPMI-8226. Also, the GI50 in the assay with HOP-62 was 20.3 µM (inactive); with SNB-19 it was 17.3 µM (inactive); in the assay with UACC-257 it was 10.2 µM (inactive); in the assay with HT-29, 9.68 µM (inactive); in the assay with HCT-116, 13.3 µM (inactive); in the assay on M14 it was 12.6 µM (inactive).
Turning to `N=C(N)SCCc1cn2ccccc2n1`, the GI50 in the assay on NCI-H460, in the assay with OVCAR-5, in the assay with 786-0, in the assay with HCC 2998, with Malme-3M and with SF-539 was > 100 µM (inactive) throughout. In addition, the GI50 in the assay on CAKI-1 was > 100 µM (inactive); in the assay on HCT-15, above 100 µM; in the assay with A549, > 100 µM (inactive); in the assay with OVCAR-4 it was > 100 µM (inactive); with RPMI-8226 it was > 100 µM (inactive); in the assay with HOP-62, > 100 µM (inactive). Further, the GI50 in the assay on SNB-19, in the assay on UACC-257, in the assay on HT-29, with HCT-116 and in the assay with M14 was > 100 µM (inactive) each time.
Regarding `COC(=O)CCC1(NS(=O)(=O)c2ccc(C)cc2)CCC(C(C)(C)C)CC1` (configuration not stated), the GI50 with NCI-H460 is 31.2 µM (inactive); in the assay with OVCAR-5, 16.3 µM (inactive); in the assay on 786-0, 14.4 µM (inactive); in the assay with HCC 2998, 14.6 µM (inactive); in the assay on IGROV-1, 14.6 µM (inactive); with Malme-3M it was 19.3 µM (inactive). The GI50 is 13.3 µM (inactive) in the assay on SF-539; 13.6 µM (inactive) with CAKI-1; above 10 µM with HCT-15; 13.6 µM (inactive) with A549; 11.2 µM (inactive) in the assay with OVCAR-4; 4.08 µM (inactive) with RPMI-8226. The GI50 in the assay with HOP-62 is 17.3 µM (inactive); in the assay with SNB-19, 12.2 µM (inactive); with UACC-257 it was 6.95 µM (inactive); in the assay on HT-29, 13.8 µM (inactive); in the assay with HCT-116, 7.74 µM (inactive); in the assay on M14, 12.7 µM (inactive).
